Laboratory results as given in article PMC4823954, “From fighting depression to conquering tumors: a novel tricyclic thiazepine compound as a tubulin polymerization inhibitor” (Cell Death & Disease, 2016).

Key:
Experiment in all cases: KINOMEscan
Assay type in all cases: binding
Details in all cases: read-out: % Ctrl
[1] = target: T1, ABL1(F317L)-nonphosphorylated (Homo sapiens, UniProt P00519, F317L)
T1 construct: purchased DiscoveRx KINOMEscan

[2] = target: T2, ACVR2A (Homo sapiens, UniProt P27037)
T2 construct: purchased DiscoveRx KINOMEscan
How it was run: (§1)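 Competition binding panel of 442 non-mutant kinases: test compound at 5 and 10 μM competed with an active-site-directed ligand for 1 h with shaking. Bound kinase was eluted with 0.5 μM ligand and quantified by qPCR; %Ctrl = (compound − positive control)/(DMSO − positive control) × 100, lower meaning tighter binding.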

[3] = target: T3, ACVR2B (Homo sapiens, UniProt Q13705)
T3 construct: purchased DiscoveRx KINOMEscan
How it was run: as §1

[4] = target: T4, ALK (Homo sapiens, UniProt Q9UM73)
T4 construct: purchased DiscoveRx KINOMEscan
How it was run: as §1

[5] = target: T5, AURKB (Homo sapiens, UniProt Q96GD4)
T5 construct: purchased DiscoveRx KINOMEscan
How it was run: as §1

[6] = target: T6, BIKE (Homo sapiens, UniProt Q9NSY1)
T6 construct: purchased DiscoveRx KINOMEscan
T6 sequence (Q9NSY1 whole entry): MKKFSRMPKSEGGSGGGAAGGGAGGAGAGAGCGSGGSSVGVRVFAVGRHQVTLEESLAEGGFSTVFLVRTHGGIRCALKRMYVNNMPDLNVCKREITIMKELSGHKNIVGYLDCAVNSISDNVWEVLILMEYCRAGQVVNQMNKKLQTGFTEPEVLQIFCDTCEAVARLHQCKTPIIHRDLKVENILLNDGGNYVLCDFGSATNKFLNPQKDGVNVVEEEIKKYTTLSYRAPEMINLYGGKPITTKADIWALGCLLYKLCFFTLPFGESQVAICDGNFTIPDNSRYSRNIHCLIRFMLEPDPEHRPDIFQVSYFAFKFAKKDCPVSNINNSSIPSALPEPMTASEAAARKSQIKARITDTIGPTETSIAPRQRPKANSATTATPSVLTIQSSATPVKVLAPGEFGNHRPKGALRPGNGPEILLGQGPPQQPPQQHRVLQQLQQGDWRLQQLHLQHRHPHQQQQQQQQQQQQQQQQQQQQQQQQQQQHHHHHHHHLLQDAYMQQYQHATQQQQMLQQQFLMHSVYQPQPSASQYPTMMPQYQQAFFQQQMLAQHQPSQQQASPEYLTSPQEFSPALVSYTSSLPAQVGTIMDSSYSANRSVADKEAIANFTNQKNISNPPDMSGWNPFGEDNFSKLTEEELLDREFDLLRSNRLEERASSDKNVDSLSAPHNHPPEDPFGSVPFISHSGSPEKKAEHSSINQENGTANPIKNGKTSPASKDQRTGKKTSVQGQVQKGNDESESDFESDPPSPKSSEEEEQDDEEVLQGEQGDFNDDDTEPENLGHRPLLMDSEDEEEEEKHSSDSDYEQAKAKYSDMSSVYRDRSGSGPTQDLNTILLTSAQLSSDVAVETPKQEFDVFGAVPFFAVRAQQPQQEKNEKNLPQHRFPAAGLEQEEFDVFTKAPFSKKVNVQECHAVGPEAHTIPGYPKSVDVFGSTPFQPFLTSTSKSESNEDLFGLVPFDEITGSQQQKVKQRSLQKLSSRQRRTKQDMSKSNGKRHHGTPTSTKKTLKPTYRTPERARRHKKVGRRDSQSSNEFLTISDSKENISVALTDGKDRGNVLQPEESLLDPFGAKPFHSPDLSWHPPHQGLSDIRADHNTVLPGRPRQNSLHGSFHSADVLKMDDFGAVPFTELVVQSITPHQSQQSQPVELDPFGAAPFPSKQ
How it was run: as §1

[7] = target: T7, CSNK1E (Homo sapiens, UniProt P49674)
T7 construct: purchased DiscoveRx KINOMEscan
How it was run: as §1

[8] = target: T8, CSNK1G2 (Homo sapiens, UniProt P78368)
T8 construct: purchased DiscoveRx KINOMEscan
How it was run: as §1

[9] = target: T9, DAPK2 (Homo sapiens, UniProt Q9UIK4)
T9 construct: purchased DiscoveRx KINOMEscan
T9 sequence (Q9UIK4 whole entry): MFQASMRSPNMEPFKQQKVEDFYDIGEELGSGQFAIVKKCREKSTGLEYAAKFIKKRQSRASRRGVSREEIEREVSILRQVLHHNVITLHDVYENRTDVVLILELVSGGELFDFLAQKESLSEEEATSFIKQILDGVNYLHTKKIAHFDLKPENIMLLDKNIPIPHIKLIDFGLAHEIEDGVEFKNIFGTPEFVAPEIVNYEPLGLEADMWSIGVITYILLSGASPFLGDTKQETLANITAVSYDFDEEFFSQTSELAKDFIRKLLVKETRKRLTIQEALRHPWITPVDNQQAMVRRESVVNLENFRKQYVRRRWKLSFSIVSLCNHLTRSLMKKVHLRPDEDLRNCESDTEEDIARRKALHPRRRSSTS
How it was run: as §1

[10] = target: T10, DAPK3 (Homo sapiens, UniProt O43293)
T10 construct: purchased DiscoveRx KINOMEscan
T10 sequence (O43293 whole entry): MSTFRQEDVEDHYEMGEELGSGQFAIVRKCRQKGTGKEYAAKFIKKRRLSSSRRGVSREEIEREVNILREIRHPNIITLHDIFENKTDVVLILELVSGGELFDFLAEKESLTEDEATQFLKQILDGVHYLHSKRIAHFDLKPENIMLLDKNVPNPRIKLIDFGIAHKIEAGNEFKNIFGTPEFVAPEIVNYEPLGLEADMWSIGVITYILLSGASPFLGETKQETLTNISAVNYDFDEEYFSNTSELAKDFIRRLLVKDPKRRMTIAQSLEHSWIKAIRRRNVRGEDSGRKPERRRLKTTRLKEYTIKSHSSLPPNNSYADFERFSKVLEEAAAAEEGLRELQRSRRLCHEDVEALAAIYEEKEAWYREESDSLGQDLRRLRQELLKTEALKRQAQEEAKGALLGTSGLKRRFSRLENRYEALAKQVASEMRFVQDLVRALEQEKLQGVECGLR
How it was run: as §1

[11] = target: T11, EGFR (Homo sapiens, UniProt P00533)
T11 construct: purchased DiscoveRx KINOMEscan
T11 sequence (P00533 25-1210): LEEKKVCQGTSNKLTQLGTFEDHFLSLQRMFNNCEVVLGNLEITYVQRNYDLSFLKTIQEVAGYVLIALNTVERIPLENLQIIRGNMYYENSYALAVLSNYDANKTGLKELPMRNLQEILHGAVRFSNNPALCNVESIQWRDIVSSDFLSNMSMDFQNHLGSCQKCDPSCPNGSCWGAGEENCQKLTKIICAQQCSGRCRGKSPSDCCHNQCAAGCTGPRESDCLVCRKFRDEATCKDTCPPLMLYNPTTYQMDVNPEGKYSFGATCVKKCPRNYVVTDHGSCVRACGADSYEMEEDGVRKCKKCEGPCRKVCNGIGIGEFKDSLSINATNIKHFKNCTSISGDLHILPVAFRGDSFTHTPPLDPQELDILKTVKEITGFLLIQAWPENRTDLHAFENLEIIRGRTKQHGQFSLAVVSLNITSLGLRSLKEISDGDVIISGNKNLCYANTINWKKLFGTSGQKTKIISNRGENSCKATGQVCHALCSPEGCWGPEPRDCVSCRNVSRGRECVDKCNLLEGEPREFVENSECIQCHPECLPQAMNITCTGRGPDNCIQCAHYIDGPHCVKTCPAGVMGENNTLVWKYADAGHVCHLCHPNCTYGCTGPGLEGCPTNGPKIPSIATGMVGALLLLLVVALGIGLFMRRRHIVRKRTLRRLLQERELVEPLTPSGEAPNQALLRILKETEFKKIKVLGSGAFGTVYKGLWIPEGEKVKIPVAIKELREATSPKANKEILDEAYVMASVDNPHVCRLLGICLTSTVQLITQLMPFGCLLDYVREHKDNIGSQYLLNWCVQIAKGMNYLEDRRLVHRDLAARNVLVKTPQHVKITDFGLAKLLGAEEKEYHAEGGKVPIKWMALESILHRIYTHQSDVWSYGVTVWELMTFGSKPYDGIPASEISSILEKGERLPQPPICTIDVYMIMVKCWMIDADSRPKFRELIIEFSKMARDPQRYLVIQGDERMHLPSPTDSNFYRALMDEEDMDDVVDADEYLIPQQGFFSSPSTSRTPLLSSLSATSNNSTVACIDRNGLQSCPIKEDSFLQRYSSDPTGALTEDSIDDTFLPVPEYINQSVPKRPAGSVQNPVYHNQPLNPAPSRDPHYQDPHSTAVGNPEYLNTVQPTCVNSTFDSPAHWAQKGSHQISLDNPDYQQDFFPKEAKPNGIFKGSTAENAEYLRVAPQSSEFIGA
How it was run: as §1

[12] = target: T12, FGFR3 (Homo sapiens, UniProt P22607)
T12 construct: purchased DiscoveRx KINOMEscan
How it was run: as §1

[13] = target: T13, INSR (Homo sapiens, UniProt P06213)
T13 construct: purchased DiscoveRx KINOMEscan
How it was run: as §1

[14] = target: T14, JAK3(JH1domain-catalytic) (Homo sapiens, UniProt P52333)
T14 construct: JAK3(JH1domain-catalytic); purchased DiscoveRx KINOMEscan
How it was run: as §1

[15] = target: T15, MAP3K15 (Homo sapiens, UniProt Q6ZN16)
T15 construct: purchased DiscoveRx KINOMEscan
T15 sequence (Q6ZN16 whole entry): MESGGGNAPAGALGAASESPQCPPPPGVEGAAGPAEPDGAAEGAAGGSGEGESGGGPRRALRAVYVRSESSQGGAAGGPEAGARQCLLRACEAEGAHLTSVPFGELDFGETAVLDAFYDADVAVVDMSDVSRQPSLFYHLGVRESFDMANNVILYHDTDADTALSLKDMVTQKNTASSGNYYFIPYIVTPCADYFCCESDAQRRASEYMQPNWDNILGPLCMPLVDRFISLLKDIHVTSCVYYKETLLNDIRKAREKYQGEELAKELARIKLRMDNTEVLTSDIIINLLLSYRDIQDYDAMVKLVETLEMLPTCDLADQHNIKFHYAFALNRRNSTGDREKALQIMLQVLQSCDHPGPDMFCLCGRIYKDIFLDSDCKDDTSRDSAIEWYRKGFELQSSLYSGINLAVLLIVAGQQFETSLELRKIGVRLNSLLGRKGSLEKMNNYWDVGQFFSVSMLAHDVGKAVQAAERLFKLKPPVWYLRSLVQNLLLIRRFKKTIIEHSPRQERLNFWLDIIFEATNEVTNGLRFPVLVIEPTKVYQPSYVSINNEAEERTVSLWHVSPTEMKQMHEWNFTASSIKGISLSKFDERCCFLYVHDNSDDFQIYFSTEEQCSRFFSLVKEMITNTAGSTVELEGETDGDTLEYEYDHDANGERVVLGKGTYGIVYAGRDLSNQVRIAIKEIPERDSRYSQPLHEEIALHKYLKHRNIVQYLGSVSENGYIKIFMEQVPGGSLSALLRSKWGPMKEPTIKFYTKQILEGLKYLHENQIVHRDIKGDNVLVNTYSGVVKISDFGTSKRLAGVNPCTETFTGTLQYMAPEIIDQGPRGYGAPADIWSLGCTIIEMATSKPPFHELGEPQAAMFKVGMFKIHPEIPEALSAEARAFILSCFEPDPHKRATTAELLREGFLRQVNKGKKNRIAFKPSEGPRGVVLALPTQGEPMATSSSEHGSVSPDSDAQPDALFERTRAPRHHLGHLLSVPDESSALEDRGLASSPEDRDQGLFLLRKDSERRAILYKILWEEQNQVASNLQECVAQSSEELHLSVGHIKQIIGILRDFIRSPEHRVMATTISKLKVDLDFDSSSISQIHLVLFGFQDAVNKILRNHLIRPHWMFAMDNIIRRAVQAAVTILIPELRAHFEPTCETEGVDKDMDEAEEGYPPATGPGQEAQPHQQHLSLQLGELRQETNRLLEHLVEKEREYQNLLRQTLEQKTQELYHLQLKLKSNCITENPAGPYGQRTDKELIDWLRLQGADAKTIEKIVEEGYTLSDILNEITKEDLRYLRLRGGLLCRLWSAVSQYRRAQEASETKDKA
How it was run: as §1

[16] = target: T16, MAPKAPK2 (Homo sapiens, UniProt P49137)
T16 construct: purchased DiscoveRx KINOMEscan
How it was run: as §1

[17] = target: T17, MST4 (Homo sapiens, UniProt Q9P289)
T17 construct: purchased DiscoveRx KINOMEscan
How it was run: as §1

[18] = target: T18, MTOR (Homo sapiens, UniProt P42345)
T18 construct: purchased DiscoveRx KINOMEscan
How it was run: as §1

[19] = target: T19, NEK3 (Homo sapiens, UniProt P51956)
T19 construct: purchased DiscoveRx KINOMEscan
T19 sequence (P51956 whole entry): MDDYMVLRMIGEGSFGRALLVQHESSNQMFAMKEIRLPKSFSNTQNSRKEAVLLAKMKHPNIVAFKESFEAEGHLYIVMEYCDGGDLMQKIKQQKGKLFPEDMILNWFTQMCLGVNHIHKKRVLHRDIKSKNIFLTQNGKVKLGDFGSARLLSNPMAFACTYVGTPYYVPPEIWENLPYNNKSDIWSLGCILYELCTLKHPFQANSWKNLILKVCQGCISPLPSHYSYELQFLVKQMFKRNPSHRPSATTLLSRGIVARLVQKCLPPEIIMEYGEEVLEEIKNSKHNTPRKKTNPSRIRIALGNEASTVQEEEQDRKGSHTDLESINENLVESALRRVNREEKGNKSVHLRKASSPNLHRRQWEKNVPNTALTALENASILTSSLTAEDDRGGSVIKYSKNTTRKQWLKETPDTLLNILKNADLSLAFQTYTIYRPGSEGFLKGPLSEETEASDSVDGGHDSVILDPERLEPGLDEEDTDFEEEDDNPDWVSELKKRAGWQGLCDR
How it was run: as §1

[20] = target: T20, NLK (Homo sapiens, UniProt Q9UBE8)
T20 construct: purchased DiscoveRx KINOMEscan
How it was run: as §1

[21] = target: T21, PCTK2 (Homo sapiens, UniProt Q00537)
T21 construct: purchased DiscoveRx KINOMEscan
How it was run: as §1

[22] = target: T22, PIK3CG (Homo sapiens, UniProt P48736)
T22 construct: purchased DiscoveRx KINOMEscan
How it was run: as §1

[23] = target: T23, PRKCD (Homo sapiens, UniProt Q05655)
T23 construct: purchased DiscoveRx KINOMEscan
How it was run: as §1

[24] = target: T24, PYK2 (Homo sapiens, UniProt Q14289)
T24 construct: purchased DiscoveRx KINOMEscan
How it was run: as §1

[25] = target: T25, RIPK4 (Homo sapiens, UniProt P57078)
T25 construct: purchased DiscoveRx KINOMEscan
How it was run: as §1

[26] = target: T26, ROS1 (Homo sapiens, UniProt P08922)
T26 construct: purchased DiscoveRx KINOMEscan
How it was run: as §1

[27] = target: T27, SRPK1 (Homo sapiens, UniProt Q96SB4)
T27 construct: purchased DiscoveRx KINOMEscan
How it was run: as §1

[28] = target: T28, TNK2 (Homo sapiens, UniProt Q07912)
T28 construct: purchased DiscoveRx KINOMEscan
How it was run: as §1

[29] = target: T29, WEE1 (Homo sapiens, UniProt P30291)
T29 construct: purchased DiscoveRx KINOMEscan
How it was run: as §1

[30] = target: T30, YSK1 (Homo sapiens, UniProt O00506)
T30 construct: purchased DiscoveRx KINOMEscan
How it was run: as §1

Cc1ccc(C2=Nc3cccnc3S(=O)(=O)c3ccccc32)cc1 [TBPT, 6-(p-tolyl)benzo[f] pyrido[2,3-b][1,4] thiazepine 11,11-dioxide]
98%: remaining binding at 5 µM ([5]; 5 μM) | remaining binding at 5 µM ([13]; 5 μM)
72%: remaining binding at 5 µM ([23]; 5 μM)
89%: remaining binding at 5 µM ([12]; 5 μM) | remaining binding at 10 µM ([20]; 10 μM) | remaining binding at 10 µM ([21]; 10 μM) | remaining binding at 5 µM ([22]; 5 μM)
95%: remaining binding at 10 µM ([18]; 10 μM)
63%: remaining binding at 5 µM ([17]; 5 μM)
92%: remaining binding at 10 µM ([5]; 10 μM)
82%: remaining binding at 10 µM ([3]; 10 μM)
88%: remaining binding at 5 µM ([27]; 5 μM)
83%: remaining binding at 5 µM ([20]; 5 μM)
100%: remaining binding at 10 µM ([1]; 10 μM) | remaining binding at 5 µM ([2]; 5 μM) | remaining binding at 5 µM ([4]; 5 μM) | remaining binding at 5 µM ([7]; 5 μM) | remaining binding at 5 µM ([8]; 5 μM) | remaining binding at 10 µM ([8]; 10 μM) | remaining binding at 5 µM ([9]; 5 μM) | remaining binding at 5 µM ([10]; 5 μM) | remaining binding at 10 µM ([10]; 10 μM) | remaining binding at 5 µM ([11]; 5 μM) | remaining binding at 10 µM ([12]; 10 μM) | remaining binding at 5 µM ([14]; 5 μM) | remaining binding at 10 µM ([14]; 10 μM) | remaining binding at 5 µM ([15]; 5 μM) | remaining binding at 10 µM ([15]; 10 μM) | remaining binding at 5 µM ([16]; 5 μM) | remaining binding at 10 µM ([16]; 10 μM) | remaining binding at 5 µM ([18]; 5 μM) | remaining binding at 5 µM ([19]; 5 μM) | remaining binding at 10 µM ([19]; 10 μM) | remaining binding at 5 µM ([21]; 5 μM) | remaining binding at 10 µM ([23]; 10 μM) | remaining binding at 5 µM ([24]; 5 μM) | remaining binding at 10 µM ([24]; 10 μM) | remaining binding at 5 µM ([25]; 5 μM) | remaining binding at 10 µM ([25]; 10 μM) | remaining binding at 5 µM ([26]; 5 μM) | remaining binding at 10 µM ([26]; 10 μM) | remaining binding at 5 µM ([28]; 5 μM) | remaining binding at 10 µM ([28]; 10 μM) | remaining binding at 5 µM ([29]; 5 μM) | remaining binding at 10 µM ([30]; 10 μM)
80%: remaining binding at 5 µM ([1]; 5 μM) | remaining binding at 10 µM ([22]; 10 μM)
67%: remaining binding at 10 µM ([27]; 10 μM)
93%: remaining binding at 10 µM ([2]; 10 μM) | remaining binding at 10 µM ([6]; 10 μM)
84%: remaining binding at 10 µM ([13]; 10 μM)
96%: remaining binding at 10 µM ([7]; 10 μM) | remaining binding at 10 µM ([29]; 10 μM)
87%: remaining binding at 5 µM ([3]; 5 μM) | remaining binding at 5 µM ([6]; 5 μM)
99%: remaining binding at 10 µM ([9]; 10 μM) | remaining binding at 10 µM ([17]; 10 μM) | remaining binding at 5 µM ([30]; 5 μM)
71%: remaining binding at 10 µM ([4]; 10 μM)
91%: remaining binding at 10 µM ([11]; 10 μM)
